According to US8188087B2, “Crystalline (3-cyano-1H-indol-7-yl)-[4-(4-fluorophenethyl) piperazin-1-yl]methanone phosphate” (Merck Patent GmbH, priority 2006, dated 2012):
Counter-ions that a name gives are not always drawn.

Tests used:
Format in all cases: physicochemical
[1] = Solid-state (polymorphic/crystal form) stability
Description: It is disadvantageous for a formulation to comprise a plurality of crystal forms of an active ingredient in that they may have different bioavailabilities and/or stability. Even slight variations in production conditions may compromise the reproducibility of the crystal form and therefore the performance of the formulated product. In addition, poorly crystalline materials are typically less desirable than highly crystalline materials because they are generally more difficult to handle during formulation processes.
The Anhydrate is not stable under the conditions necessary for obtaining an SSNMR spectrum.

[2] = Water retained in the crystal lattice in equilibrium with relative humidity; conditions: in equilibrium with a relative humidity of about 5% to about 95%
Description: Two new crystalline forms are characterized by, inter alia, x-ray powder diffractometry, or alternatively, solid state nuclear magnetic resonance spectroscopy. One preferred embodiment of the present invention provides for a crystalline (3-cyano-1H-indol-7-yl)-[4-(4-fluorophenethyl)piperazin-1-yl]methanone phosphate hydrate Form I (Form I). Form I is characterized as a non-stoichiometric hydrate in that it retains water about 1.2% by weight of compound (up to approximately ⅓ mole of water per mole of compound) within the crystalline lattice when in equilibrium with a relative humidity of about 5% to about 95%.

[3] = Solubility in the crystallization/isolation solvent systems; conditions: all of the solvent systems tested; isolation temperatures about 5° C. to about 22° C.
Procedure: Suitable solvents include, but are not limited to, methanol, ethanol, propan-1-ol, propan-2-ol, butan-2-ol, tetrahydrofuran, acetone, and the like. Suitable temperatures for salt formation typically range between about 50° C. to about 75° C. depending on the solvent. One preferred temperature range for salt formation is from the temperature at which the (3-cyano-1H-indol-7-yl)-[4-(4-fluorophenethyl)piperazin-1-yl]methanone is soluble up to the reflux temperature of the solvent. […] However, this may result in a slurry to slurry conversion of (3-cyano-1H-indol-7-yl)-[4-(4-fluorophenethyl)piperazin-1-yl]methanone to the salt.
Isolation temperatures typically range between about 5° C. and about 22° C.

Q: Which results are given for N#Cc1c[nH]c2c(C(=O)N3CCN(CCc4ccc(F)cc4)CC3)cccc12.O=P(O)(O)O [Anhydrate, (3-cyano-1H-indol-7-yl)-[4-(4-fluorophenethyl)piperazin-1-yl]methanone phosphate anhydrate]?
A: crystal form stability under anhydrous conditions ([1]; anhydrous conditions): stable; crystal form stability under SSNMR conditions ([1]; conditions necessary for obtaining an SSNMR spectrum): not stable; crystal form conversion on exposure to water ([1]; exposure to water, including atmospheric humidity): may be converted to Form I

Q: What does the source list for N#Cc1c[nH]c2c(C(=O)N3CCN(CCc4ccc(F)cc4)CC3)cccc12.O=P(O)(O)O [Form I, (3-cyano-1H-indol-7-yl)-[4-(4-fluorophenethyl)piperazin-1-yl]methanone phosphate hydrate Form I]?
A: water retained within the crystalline lattice [2]: about 1.2 % by weight of compound; water retained within the crystalline lattice (molar) [2]: ⅓; crystal form conversion on dehydration ([1]; dehydrating the solid at 0% RH and ambient temperature): may be converted to the Anhydrate

Q: With N#Cc1c[nH]c2c(C(=O)N3CCN(CCc4ccc(F)cc4)CC3)cccc12.O=P(O)(O)O [The salt, (3-Cyano-1H-indol-7-yl)-[4-(4-fluorophenethyl)piperazin-1-yl]methanone phosphate] as the compound, how does the “solubility in solvent systems tested” value [3] read?
A: low solubility

Q: For N#Cc1c[nH]c2c(C(=O)N3CCN(CCc4ccc(F)cc4)CC3)cccc12 [hydrochloride salt, (3-cyano-1H-indol-7-yl)-[4-(4-fluorophenethyl)piperazin-1-yl]-methanone, reference compound], which “solid form stability upon compression” value ([1]; upon compression during the manufacturing process) is on record?
A: converts from a single polymorphic form into a second, poorly crystalline, metastable polymorphic form
